Measurements from patent US20210269434A1, “TRICYCLIC COMPOUNDS AS INHIBITORS OF KRAS” (Incyte Corporation, priority 2020, published 2021).

What was measured:
[1] = tested on: MIA PaCa-2 (KRAS G12C) cells; test: Cellular pERK HTRF assay (KRAS_G12C pERK); type: cell-based, human; settings: Homo sapiens, MIA PaCa-2, 4 hours incubation, read-out: G12C_pERK
In short: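 MIA PaCa-2 cells plated overnight, then exposed to compound for 4 h at 37 °C (G12C compounds). Phospho-ERK1/2 measured in lysates by HTRF (665/620 nm) after overnight antibody incubation; IC50 from percent inhibition versus log concentration.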

[2] = biological target: KRAS G12C (Homo sapiens, UniProt P01116, G12C); test: GDP-GTP exchange assay (KRAS_G12C exchange); type: biochemical; settings: bodipy-GDP loaded KRAS G12C 2.5 nM, SOS1 150 nM, GppNHp; 2 hours pre-incubation, 2 hours reaction; read-out: G12C_exchange
In short: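 Fluorescence exchange of bodipy-GDP for GppNHp, SOS1-driven, read at 485/520 nm; IC50 from four-parameter variable-slope fit. Both mutants used 2.5 nM final labelled protein and a 2 h compound pre-incubation. G12C reaction had 500 uM GppNHp and 150 nM SOS1 for 2 h; G12D ran 4 h.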

Sequence of KRAS G12C (P01116 1-188 isoform P01116-2 G12C): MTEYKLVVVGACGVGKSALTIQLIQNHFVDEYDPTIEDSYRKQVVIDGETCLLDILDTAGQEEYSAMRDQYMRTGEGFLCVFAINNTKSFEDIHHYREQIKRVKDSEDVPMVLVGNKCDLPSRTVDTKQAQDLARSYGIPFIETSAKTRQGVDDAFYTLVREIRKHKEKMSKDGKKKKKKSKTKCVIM

IC50 [1] [nM] | IC50 [2] [nM] | Compound
≤ 100 | ≤ 100 | Cc1cc2c(nc(N3CC(C)(N(C)C)C3)c3nnn([C@H]4CCN(C(=O)/C=C/CN(C)C)[C@H](CC#N)C4)c32)c(F)c1-c1c(C)c(Cl)cc2[nH]ncc12 [Example 196a, 2-((2S,4S)-4-(7-(6-chloro-5-methyl-1H-indazol-4-yl)-4-(3-(dimethylamino)-3-methylazetidin-1-yl)-6-fluoro-8-methyl-1H-[1,2,3]triazolo[4,5-c]quinolin-1-yl)-1-((E)-4-(dimethylamino)but-2-enoyl)piperidin-2-yl)acetonitrile]
≤ 100 | ≤ 100 | COC/C=C/C(=O)N1CC[C@H](n2nnc3c(N4CC(C)(N(C)C)C4)nc4c(F)c(-c5c(C)c(F)cc6[nH]ncc56)c(C)cc4c32)C[C@H]1CC#N [Example 203a, 2-((2S,4S)-4-(4-(3-(dimethylamino)-3-methylazetidin-1-yl)-6-fluoro-7-(6-fluoro-5-methyl-1H-indazol-4-yl)-8-methyl-1H-[1,2,3]triazolo[4,5-c]quinolin-1-yl)-1-((E)-4-methoxybut-2-enoyl)piperidin-2-yl)acetonitrile]
≤ 100 | ≤ 100 | Cc1cccc(-c2c(C)cc3c(nc(N4CC(N(C)C)C4)c4nnn([C@H]5CCN(C(=O)/C=C/CF)[C@H](CC#N)C5)c43)c2F)c1C [Example 206, 2-((2S,4S)-4-(4-(3-(dimethylamino)azetidin-1-yl)-7-(2,3-dimethylphenyl)-6-fluoro-8-methyl-1H-[1,2,3]triazolo[4,5-c]quinolin-1-yl)-1-((E)-4-fluorobut-2-enoyl)piperidin-2-yl)acetonitrile]
≤ 100 | ≤ 100 | CC#CC(=O)N1CC[C@H](n2nnc3c(N4CC(N(C)C)C4)nc4c(F)c(-c5cccc(C)c5C)c(C)cc4c32)C[C@H]1CC#N [Example 207, 2-((2S,4S)-1-(but-2-ynoyl)-4-(4-(3-(dimethylamino)azetidin-1-yl)-7-(2,3-dimethylphenyl)-6-fluoro-8-methyl-1H-[1,2,3]triazolo[4,5-c]quinolin-1-yl)piperidin-2-yl)acetonitrile]
≤ 100 | ≤ 100 | C=CC(=O)N1CC[C@H](n2nnc3c(N4CC(C)(N(C)C)C4)nc4c(F)c(-c5cccc(C)c5C)c(C)cc4c32)C[C@H]1CC#N [Example 208, 2-((2S,4S)-1-acryloyl-4-(4-(3-(dimethylamino)-3-methylazetidin-1-yl)-7-(2,3-dimethylphenyl)-6-fluoro-8-methyl-1H-[1,2,3]triazolo[4,5-c]quinolin-1-yl)piperidin-2-yl)acetonitrile]
≤ 100 | ≤ 100 | Cc1cccc(-c2c(C)cc3c(nc(N4CC(C)(N(C)C)C4)c4nnn([C@H]5CCN(C(=O)/C=C/CF)[C@H](CC#N)C5)c43)c2F)c1C [Example 209, 2-((2S,4S)-4-(4-(3-(dimethylamino)-3-methylazetidin-1-yl)-7-(2,3-dimethylphenyl)-6-fluoro-8-methyl-1H-[1,2,3]triazolo[4,5-c]quinolin-1-yl)-1-((E)-4-fluorobut-2-enoyl)piperidin-2-yl)acetonitrile]
≤ 100 | ≤ 100 | C=CC(=O)N1CCC(n2nnc3c(N4CC(C)(N(C)C)C4)nc4c(F)c(-c5cccc(C)c5)c(Cl)cc4c32)C[C@H]1CC#N (stereo partly drawn) [Example 211, 2-((2S)-1-acryloyl-4-(8-chloro-4-(3-(dimethylamino)-3-methylazetidin-1-yl)-6-fluoro-7-(m-tolyl)-1H-[1,2,3]triazolo[4,5-c]quinolin-1-yl)piperidin-2-yl)acetonitrile]
≤ 100 | ≤ 100 | C=CC(=O)N1CCC(n2nnc3c(N4CC(C)(N(C)C)C4)nc4c(F)c(-c5cccc6cccc(Cl)c56)c(C)cc4c32)C[C@H]1CC#N (stereo partly drawn) [Example 225, 2-((2S)-1-acryloyl-4-(7-(8-chloronaphthalen-1-yl)-4-(3-(dimethylamino)-3-methylazetidin-1-yl)-6-fluoro-8-methyl-1H-[1,2,3]triazolo[4,5-c]quinolin-1-yl)piperidin-2-yl)acetonitrile]
≤ 100 | ≤ 100 | CC#CC(=O)N1CC[C@H](n2nnc3c(N4CC(C)(N(C)C)C4)nc4c(F)c(-c5cccc(C)c5C)c(C)cc4c32)C[C@H]1CC#N [Example 226, 2-((2S,4S)-1-(but-2-ynoyl)-4-(4-(3-(dimethylamino)-3-methylazetidin-1-yl)-7-(2,3-dimethylphenyl)-6-fluoro-8-methyl-1H-[1,2,3]triazolo[4,5-c]quinolin-1-yl)piperidin-2-yl)acetonitrile]

Further lines, the molecule ahead of its results:

Compound | IC50 [1] [nM] | IC50 [2] [nM]
Cc1cc2c(nc(N3CC(C)(N(C)C)C3)c3nnn([C@H]4CCN(C(=O)/C=C/C(F)F)[C@H](CC#N)C4)c32)c(F)c1-c1c(C)c(Cl)cc2[nH]ncc12 [Example 197a, 2-((2S,4S)-4-(7-(6-chloro-5-methyl-1H-indazol-4-yl)-4-(3-(dimethylamino)-3-methylazetidin-1-yl)-6-fluoro-8-methyl-1H-[1,2,3]triazolo[4,5-c]quinolin-1-yl)-1-((E)-4,4-difluorobut-2-enoyl)piperidin-2-yl)acetonitrile] | ≤ 100 | ≤ 100
C=CC(=O)N1CC[C@H](n2nnc3c(OC[C@@H]4CCCN4C)nc4c(F)c(-c5ccc(F)c(C)c5)c(C)cc4c32)C[C@H]1CC#N [Example 199, 2-((2S,4S)-1-acryloyl-4-(6-fluoro-7-(4-fluoro-3-methylphenyl)-8-methyl-4-(((S)-1-methylpyrrolidin-2-yl)methoxy)-1H-[1,2,3]triazolo[4,5-c]quinolin-1-yl)piperidin-2-yl)acetonitrile] | ≤ 100 | ≤ 100
Cc1c(Cl)cc2[nH]ncc2c1-c1c(Cl)cc2c(nc(N3CC(N(C)C)C3)c3nnn([C@H]4CCN(C(=O)/C=C/C(F)F)[C@H](CC#N)C4)c32)c1F [Example 201a, 2-((2S,4S)-4-(8-chloro-7-(6-chloro-5-methyl-1H-indazol-4-yl)-4-(3-(dimethylamino)azetidin-1-yl)-6-fluoro-1H-[1,2,3]triazolo[4,5-c]quinolin-1-yl)-1-((E)-4,4-difluorobut-2-enoyl)piperidin-2-yl)acetonitrile] | ≤ 100 | ≤ 100
C=CC(=O)N1CC[C@H](n2nnc3c(N4CC(C)(N(C)C)C4)nc4c(F)c(-c5c(C)c(F)cc6[nH]ncc56)c(C)cc4c32)C[C@H]1CC#N [Example 202a, 2-((2S,4S)-1-acryloyl-4-(4-(3-(dimethylamino)-3-methylazetidin-1-yl)-6-fluoro-7-(6-fluoro-5-methyl-1H-indazol-4-yl)-8-methyl-1H-[1,2,3]triazolo[4,5-c]quinolin-1-yl)piperidin-2-yl)acetonitrile] | ≤ 100 | ≤ 100
CC#CC(=O)N1CC[C@H](n2nnc3c(OC[C@@H]4CCCN4C)nc4c(F)c(-c5cccc(Cl)c5OC)c(CCC#N)cc4c32)C[C@H]1CC#N [Example 204, 3-(1-((2S,4S)-1-(but-2-ynoyl)-2-(cyanomethyl)piperidin-4-yl)-7-(3-chloro-2-methoxyphenyl)-6-fluoro-4-(((S)-1-methylpyrrolidin-2-yl)methoxy)-1H-[1,2,3]triazolo[4,5-c]quinolin-8-yl)propanenitrile] | ≤ 100 | ≤ 100
C=CC(=O)N1CCC(n2nnc3c(OC[C@@H]4CCCN4C)nc4c(F)c(-c5cccc(C)c5)c(Cl)cc4c32)C[C@H]1CC#N (stereo partly drawn) [Example 210, 2-((2S)-1-acryloyl-4-(8-chloro-6-fluoro-4-(((S)-1-methylpyrrolidin-2-yl)methoxy)-7-(m-tolyl)-1H-[1,2,3]triazolo[4,5-c]quinolin-1-yl)piperidin-2-yl)acetonitrile] | ≤ 100 | ≤ 100
CN(C)C/C=C/C(=O)N1CCC(n2nnc3c(N4CC(C)(N(C)C)C4)nc4c(F)c(-c5cccc6cccc(Cl)c56)c(Cl)cc4c32)C[C@H]1CC#N (stereo partly drawn) [Example 217, 2-((2S)-4-(8-chloro-7-(8-chloronaphthalen-1-yl)-4-(3-(dimethylamino)-3-methylazetidin-1-yl)-6-fluoro-1H-[1,2,3]triazolo[4,5-c]quinolin-1-yl)-1-((E)-4-(dimethylamino)but-2-enoyl)piperidin-2-yl)acetonitrile] | ≤ 100 | ≤ 100
CC#CC(=O)N1CCC(n2cnc3c(N4CC(C)(N(C)C)C4)nc4c(F)c(-c5cccc6cccc(Cl)c56)c(C)cc4c32)C[C@H]1CC#N (stereo partly drawn) [Example 222, 2-((2S)-1-(but-2-ynoyl)-4-(7-(8-chloronaphthalen-1-yl)-4-(3-(dimethylamino)-3-methylazetidin-1-yl)-6-fluoro-8-methyl-1H-imidazo[4,5-c]quinolin-1-yl)piperidin-2-yl)acetonitrile] | ≤ 100 | ≤ 100
C=CC(=O)N1CC[C@H](n2cnc3c(N4CC(N(C)C)C4)nc4c(F)c(-c5ccc(F)c6cccnc56)c(C(F)(F)F)cc4c32)C[C@H]1CC#N [Example 229, 2-((2S,4S)-1-acryloyl-4-(4-(3-(dimethylamino)azetidin-1-yl)-6-fluoro-7-(5-fluoroquinolin-8-yl)-8-(trifluoromethyl)-1H-imidazo[4,5-c]quinolin-1-yl)piperidin-2-yl)acetonitrile] | ≤ 100 | ≤ 100
Cc1c(Cl)cc2[nH]ncc2c1-c1c(CCC#N)cc2c(nc(N3CC(N(C)C)C3)c3nnn([C@H]4CCN(C(=O)/C=C/CN(C)C)[C@H](CC#N)C4)c32)c1F [Example 232, 3-(7-(6-chloro-5-methyl-1H-indazol-4-yl)-1-((2S,4S)-2-(cyanomethyl)-1-((E)-4-(dimethylamino)but-2-enoyl)piperidin-4-yl)-4-(3-(dimethylamino)azetidin-1-yl)-6-fluoro-1H-[1,2,3]triazolo[4,5-c]quinolin-8-yl)propanenitrile] | ≤ 100 | ≤ 100
